{"source": "patent US6200966A", "about": "“Compositions for inhibiting airway wall inflammation” (Amrad Operations Pty. Ltd., priority 1996, dated 2001)", "key": {"[1]": {"tested_on": "human cultured airway smooth muscle cells", "test": "Cell counting (increase in cell number)", "type": "cell-based", "details": "FCS (1%) or bFGF (300 pM); 3 μM; 48 h", "procedure": "Human bronchial airway smooth muscle was obtained from macroscopically normal lung resection specimens from lung transplant donors or recipients provided by the Alfred Hospital (Melbourne). Cultures were prepared as previously described in detail (Tomlinson et al., 1994). […]\nThe progression of airway smooth muscle cells through the cell-cycle to mitosis was determined by measuring changes in cell number in experiments of analogous design to those used for DNA synthesis, except that the incubations with mitogen were continued for 48 hours. […] At the end of this period, a further 200 μl of PBS (20% FCS) was added to prevent cell lysis by trypsin and cells were counted directly in a haemocytometer.\nEach treatment in an individual experiment was carried out in quadruplicate for DNA and protein synthesis experiments. […] Results are presented as grouped data from multiple cultures and are expressed as mean ±S. E. of n cultures. The degree of increment was calculated by dividing the response of treated wells by that of the control wells on the same 24-well plate. The grouped data was analysed by paired t-test after normalisation by log transformation. […]"}, "[2]": {"tested_on": "polymorphonuclear leukocytes (PMN)", "test": "Superoxide anion generation in PMN", "type": "cell-based, human", "details": "fMLP (100 nM) or zymosan (400 μg/ml); up to 10 μM"}, "[3]": {"tested_on": "pig endometrial cell cultures", "details": "Zhang & Davis, 1992; cited from earlier work"}, "[4]": {"tested_on": "airway smooth muscle cells", "test": "Morphological changes (cell rounding)", "type": "cell-based, human"}, "horseradish peroxidase": {"tested_on": "horseradish peroxidase", "test": "Oxidation of tetramethyl benzidine by purified horseradish peroxidase", "type": "biochemical", "details": "10 μM"}, "RBL2H3 cells": {"tested_on": "RBL2H3 cells", "test": "Mast cell degranulation: [3H]-5HT release", "type": "cell-based", "details": "for DNP-OA-stimulated release of [3H]-5HT: ovalbumin (DNP-OA), 10 μM", "procedure": "RBL2H3 cells were cultured in RPMI 1640 containing 10% FCS and were passaged into 24 well plates for experiments. The cells were sensitised by a 48 hour incubation with 50% (V/V) conditioned medium from a lymphoid cell line secreting anti-DNP ovalbumin antibody. During the last 24 hours of this incubation [^3 H]-5HT (1 μCi/ml) was added to each of the wells to label granular amine stores. At the end of the incubation period, the medium was aspirated, the cells were washed twice in RPMI 1640 and incubated in RPMI 1640 (0.25% BSA) in the absence or presence of 2-methyoxyoestradiol for 15 mins prior to stimulation with DNP-treated ovalbumin, A23187 or PMA for 30 mins at which time the supernatants were harvested, subjected to centrifugation (1000×g, 4° C., 5 min) and aliquots taken for determination of the amount of [^3 H]-5HT released. All experiments were carried out in quadruplicate."}, "[5]": {"tested_on": "Human polymorphonuclear leukocytes", "test": "Tetramethylbenzidine oxidation (myeloperoxidase release/activity) in leukocytes", "details": "for Tetramethylbenzidine oxidation: 2-methoxyestradiol 3 μM"}}, "note": "Entries after “also recorded” stand apart in the source; their conditions may differ."}
{"compound": "COc1cc2c(cc1O)CC[C@@H]1[C@@H]2CC[C@]2(C)[C@@H](O)CC[C@@H]12", "note": "[2-methoxyestradiol, 1,3,5[10]-estratriene-2,3,17-triol 2-methylether]", "values": [{"measurement": "increase in cell number", "setting": "[1]", "value": "complete inhibition"}, {"measurement": "superoxide anion generation in PMN", "setting": "[2]", "value": "not reduced"}, {"measurement": "synthesis of PGF2α", "setting": "[3]", "value": "inhibits the synthesis of PGF2α"}, {"measurement": "onset of shape changes", "setting": "[4]; 3 and 10 μM", "value": "≤ 6", "unit": "h"}, {"measurement": "morphological changes", "setting": "[4]; 3 and 10 μM (2-methoxyestradiol)", "value": "rounded appearance of the normally spindle-shaped cells"}, {"measurement": "oxidation of tetramethyl benzidine by purified horseradish peroxidase", "setting": "horseradish peroxidase", "value": "lack of effect; also recorded: no effect"}, {"measurement": "release of [3H]-5HT, basal or PMA or A23187", "setting": "RBL2H3 cells; basal, PMA (100 nM), A23187 (10 μM)", "value": "unaffected; also recorded: did not affect release in response to PMA"}, {"measurement": "DNP-OA-stimulated release of [3H]-5HT", "setting": "RBL2H3 cells", "value": "reduced"}, {"measurement": "DNP-OA-stimulated release of [3H]-5HT", "setting": "RBL2H3 cells; listed as 2-methoxyoestradiol", "value": "inhibits degranulation"}, {"measurement": "oxidation of tetramethyl-benzidine in leukocytes", "setting": "[5]; 3 μM, zymosan (400 μg/ml) or fMLP stimulated", "value": "reduced oxidation of tetramethyl-benzidine"}, {"measurement": "Tetramethylbenzidine oxidation", "setting": "[5]; control (no stimulus), 2×10^6 PMN in 0.5 ml", "value": "-0.004 change in absorbance value"}, {"measurement": "Tetramethylbenzidine oxidation", "setting": "[5]; fMLP 100 nM (basal 0.057)", "value": "0.028 change in absorbance value"}, {"measurement": "Tetramethylbenzidine oxidation", "setting": "[5]; zymosan 400 μg/ml (basal 0.26)", "value": "0.013 change in absorbance value"}, {"measurement": "myeloperoxidase activity in cell-free supernatants", "setting": "[5]; fMLP stimulated leukocytes, highest concentration 10 μM", "value": "reduced only by the highest concentration"}, {"measurement": "release of myeloperoxidase from polymorphonuclear leukocytes", "setting": "[5]; human peripheral blood", "value": "inhibits the release of myeloperoxidase"}]}
